Assay results published in patent US10071095B2, “1,2,4-triazolo [4,3-A] pyridine derivatives and their use for the treatment of neurological and psychiatric disorders” (JANSSEN PHARMACEUTICALS, INC., priority 2009, dated 2018).

What follows are compounds tested against T1, human mGluR2 receptor (Homo sapiens, UniProt Q14416) (assay: [35S]GTPγS binding assay, positive allosteric modulation (GTPγS-PAM) in presence of EC20 glutamate). Details: in presence of glutamate at EC20; average pEC50 if more experiments; ‡ means tested once.
T1 construct: expressed in transfected cells; host or cells: CHO cells
Assay type: biochemical
Method: [^35S]GTPγS Binding Assay
The [^35S]GTPγS binding assay is a functional membrane-based assay used to study G-protein coupled receptor (GPCR) function whereby incorporation of a non-hydrolysable form of GTP, [^35S]GTPγS (guanosine 5′-triphosphate, labelled with […] ^35S), is measured. The G-protein α subunit catalyzes the exchange of guanosine 5′-diphosphate (GDP) by guanosine triphosphate (GTP) and on activation of the GPCR by an agonist, [^35S]GTPγS, becomes incorporated and cannot be cleaved to continue the exchange cycle (Harper (1998) Current Protocols in Pharmacology 2.6.1-10, John Wiley & Sons, Inc.). […] Here we describe the use of the [^35S]GTPγS binding assay using membranes from cells transfected with the human mGluR2 receptor and adapted from Schaffhauser et al. ((2003) Molecular Pharmacology 4:798-810) for the detection of the positive allosteric modulation (PAM) properties of the compounds of this invention.
CHO-cells were cultured to pre-confluence and stimulated with 5 mM butyrate for 24 h, prior to washing in PBS, and then collected by scraping in homogenisation buffer (50 mM Tris-HCl buffer, pH 7.4, 4° C.). Cell lysates were homogenized briefly using an ultra-turrax homogenizer. The homogenate was centrifuged at 16,000 RPM (Sorvall RC-5C plus rotor SS-34) for 10 minutes and the supernatant discarded. The pellet was resuspended in 5 mM Tris-HCl, pH 7.4 and centrifuged again (18,000 RPM, 20 min, 4° C.). The final pellet was resuspended in 50 mM Tris-HCl, pH 7.4 and stored at −80° C. in appropriate aliquots before use. Protein concentration was determined by the Bradford method (Bio-Rad, USA) with bovine serum albumin as standard.
Measurement of mGluR2 positive allosteric modulatory activity of test compounds was performed as follows. Test compounds and glutamate were diluted in assay buffer containing 10 mM HEPES acid, 10 mM HEPES salt, pH 7.4, 100 mM NaCl, 3 mM MgCl2 and 10 μM GDP. Human mGlu2 receptor-containing membranes were thawed on ice and diluted in assay buffer supplemented with 14 μg/ml saponin. Membranes were pre-incubated with compound alone or together with a predefined (˜EC20) concentration of glutamate (PAM assay) for 30 min at 30° C. After addition of [^35S]GTPγS (f.c. 0.1 nM) microplates were shaken briefly and further incubated to allow [^35S]GTPγS incorporation on activation (30 minutes, 30° C.). Final assay mixtures contained 7 μg of membrane protein in 10 mM HEPES acid, 10 mM HEPES salt, pH 7.4, 100 mM NaCl, 3 mM MgCl2, 10 µM GDP and 10 μg/ml saponin. Total reaction volume was 200 μl. Reactions were terminated by rapid filtration through Unifilter-96 GF/B filter plates (Packard, Meriden, Conn.) using a 96-well Packard filtermate harvester. Filters were washed 6 times with ice-cold 10 mM NaH2PO4/10 mM Na2HPO4, pH 7.4. Filters were then air-dried, and 40 μl of liquid scintillation cocktail (Microscint-O) was added to each well. Membrane-bound radioactivity was counted in a Microplate Scintillation and Luminescence Counter from Packard.
The concentration-response curves of representative compounds of the present invention-obtained in the presence of EC20 of mGluR2 agonist glutamate to determine positive allosteric modulation (PAM)—were generated using the Lexis software interface (developed at J&J).

T1 sequence (Q14416 19-872): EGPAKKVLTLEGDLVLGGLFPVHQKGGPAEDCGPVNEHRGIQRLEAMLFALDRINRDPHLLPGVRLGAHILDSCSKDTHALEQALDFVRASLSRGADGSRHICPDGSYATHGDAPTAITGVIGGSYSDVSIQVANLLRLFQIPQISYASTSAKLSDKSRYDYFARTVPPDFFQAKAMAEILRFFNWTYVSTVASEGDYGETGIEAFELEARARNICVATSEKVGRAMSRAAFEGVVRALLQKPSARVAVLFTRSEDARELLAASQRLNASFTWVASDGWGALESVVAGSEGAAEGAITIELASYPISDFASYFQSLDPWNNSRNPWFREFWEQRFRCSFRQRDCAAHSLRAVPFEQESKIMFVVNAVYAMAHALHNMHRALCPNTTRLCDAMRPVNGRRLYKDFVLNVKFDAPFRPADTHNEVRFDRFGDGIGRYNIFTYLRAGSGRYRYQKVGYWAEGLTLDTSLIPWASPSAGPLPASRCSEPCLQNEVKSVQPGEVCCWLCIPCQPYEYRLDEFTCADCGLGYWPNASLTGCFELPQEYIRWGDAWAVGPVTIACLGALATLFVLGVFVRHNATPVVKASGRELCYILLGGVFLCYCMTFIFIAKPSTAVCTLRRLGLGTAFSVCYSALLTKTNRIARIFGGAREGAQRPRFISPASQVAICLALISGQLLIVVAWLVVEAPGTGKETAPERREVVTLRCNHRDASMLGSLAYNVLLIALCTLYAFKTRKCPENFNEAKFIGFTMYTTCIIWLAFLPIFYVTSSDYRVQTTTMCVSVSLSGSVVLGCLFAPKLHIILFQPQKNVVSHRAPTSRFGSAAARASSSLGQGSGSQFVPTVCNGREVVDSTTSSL

| SMILES | GTPγS - hR2 PAM pEC50 |
| --- | --- |
| FC(F)(F)Cc1nnc2c(Cl)c(N3CC4C(C3)C4c3ccccc3)ccn12 (racemic) [compound 81] | 6.85 |
| Fc1ccccc1NC1CCN(c2ccn3c(CC4CC4)nnc3c2C(F)(F)F)CC1 [compound 183] | 7.08 |
| FC(F)(F)C1CCC(N2CCN(c3ccn4c(CC5CC5)nnc4c3Cl)CC2)CC1 (stereo not shown) [compound 223] | 6.03‡ |
| CCCCc1nnc2c(C(F)(F)F)c(N3CC4C(C3)C4c3ccccc3)ccn12 (racemic) [compound 338] | 7.42‡ |
| C[C@@H]1CN(c2ccn3c(CC(F)(F)F)nnc3c2Cl)CCN1c1cc(F)cc(F)c1 [compound 192] | 6.63 |
| Fc1ccccc1NC1CN(c2ccn3c(CC4CC4)nnc3c2Cl)C1 [compound 190] | 6.5 |
| CCOCc1nnc2c(C(F)(F)F)c(N3CCC(c4ccc(F)cc4F)CC3)ccn12.Cl [compound 339] | 7.15‡ |
| CCc1nnc2c(C#N)c(N3CCC(c4ccccc4)CC3)ccn12 [compound 10, 3-ethyl-7-(4-phenyl-1-piperidinyl)-1,2,4-triazolo[4,3-a]pyridine-8-carbonitrile] | 6.16 |
| FC(F)(F)c1c(N2CCC(F)(c3ccccc3)CC2)ccn2c(CC3CC3)nnc12 [compound 2, 3-Cyclopropylmethyl-7-(4-fluoro-4-phenyl-1-piperidinyl)-8-(trifluoromethyl)-1,2,4-triazolo[4,3-a]pyridine] | 7.41 |
| CC1(C)CN(c2ccn3c(CC4CC4)nnc3c2C(F)(F)F)CCN1c1cc(F)cc(F)c1 [compound 233] | 7.23 |
| N#Cc1c(N2CCN(C3CCC(C(F)(F)F)CC3)CC2)ccn2c(CC3CC3)nnc12 (stereo not shown) [compound 45] | 6.07‡ |
| N#Cc1c(N2CCC(c3ccccc3)CC2)ccn2c(CC3CC3)nnc12 [compound 13, 3-(cyclopropylmethyl)-7-(4-phenyl-1-piperidinyl)-1,2,4-triazolo[4,3-a]pyridine-8-carbonitrile] | 7.13 |
| COc1cnc(C2CCN(c3ccn4c(CC5CC5)nnc4c3C(F)(F)F)CC2)nc1 [compound 111] | 6.26 |
| Clc1c(N2CCC(c3ccccc3)CC2)ccn2c(CCC3CC3)nnc12 [compound 146] | 7.02 |
| Fc1cc(F)cc(CN2CCN(c3ccn4c(CC5CC5)nnc4c3Cl)CC2)c1 [compound 179] | 5.79‡ |
| CCCc1nnc2c(Cl)c(N3CCC4(CC3)COc3ccccc34)ccn12 [compound 88] | 6.18 |
| CC(F)(F)c1nnc2c(C#N)c(N3CCC(c4ccccc4)CC3)ccn12 [compound 33] | 5.15‡ |
| FC(F)(F)c1c(N2C[C@@H]3[C@H](C2)[C@H]3c2ccccc2)ccn2c(CC3CC3)nnc12 [compound 266] | 7.88‡ |
| Fc1cc(F)cc(N2CCN(c3ccn4c(CC5CC5)nnc4c3C(F)(F)F)CC2)c1 [compound 351] | 7.46‡ |
| Cc1cccnc1OC1CCN(c2ccn3c(CC4CC4)nnc3c2Cl)CC1 [compound 48] | 6.9‡ |
| CCCc1nnc2c(C(F)(F)F)c(N3CCC(c4ccccc4)CC3)ccn12 [compound 67] | 7.36 |

| SMILES | GTPγS - hR2 PAM pEC50 |
| --- | --- |
| Fc1ccc(N2CCC3(CCN(c4ccn5c(CC6CC6)nnc5c4C(F)(F)F)CC3)C2)c(F)c1 [compound 202] | 7.86‡ |
| FC(F)(F)c1c(N2CC(c3ccccc3)C2)ccn2c(CC3CC3)nnc12 [compound 137] | 6.87 |
| CC(C)OCc1nnc2c(C(F)(F)F)c(N3CCN(c4ccccc4)CC3)ccn12 [compound 155] | 6.83‡ |
| CCOCc1nnc2c(Cl)c(N3CCC(c4cc(F)ccc4OC)CC3)ccn12 [compound 83] | 7.64 |
| N#Cc1c(N2CCC(c3ccccc3)CC2)ccn2c(C3(C(F)(F)F)CC3)nnc12 [compound 31] | 6.27 |
| Fc1ccccc1NC1CCN(c2ccn3c(CC4CC4)nnc3c2Cl)CC1 [compound 176] | 6.3 |
| Fc1ccc(CN2CCN(c3ccn4c(CC5CC5)nnc4c3C(F)(F)F)CC2)c(F)c1 [compound 227] | 6.31‡ |
| CCCc1nnc2c(C#N)c(N3CCC(c4cccc(F)c4OC)CC3)ccn12 [compound 23] | 6.98 |
| COCc1nnc2c(C#N)c(N3CCC(c4ccccc4)CC3)ccn12 [compound 24] | 6.33‡ |
| C[C@H]1CN(c2ccn3c(CC(F)(F)F)nnc3c2Cl)CCN1c1cc(F)cc(F)c1 [compound 191] | 6.76 |
| FC(F)(F)c1cccc(C2CCN(c3ccn4c(CC5CC5)nnc4c3Cl)CC2)c1 [compound 39] | 7.52 |
| CCc1nnc2c(C)c(N3CC4C(C3)C4c3ccccc3)ccn12 (racemic) [compound 335] | 6.42‡ |
| FC(F)(F)Cc1nnc2c(Cl)c(N3CCN(c4ccccc4)CC3)ccn12 [compound 101] | 6.24 |
| Fc1ccc(N2C[C@@H]3CN(c4ccn5c(CC6CC6)nnc5c4Cl)C[C@@H]3C2)c(F)c1 [compound 186] | 7.27 |
| N#Cc1c(N2CCC(c3ccccc3)CC2)ccn2c(CC(F)(F)F)nnc12 [compound 20] | 7.25 |
| CCOCc1nnc2c(Cl)c(N3CCC(c4c(OC)ccc(F)c4F)CC3)ccn12 [compound 84] | 7.86 |
| CCCCc1nnc2c(C(F)(F)F)c(N3CCC(c4ccccc4)CC3)ccn12 [compound 4, 3-Butyl-7-(4-phenyl-1-piperidinyl)-8-trifluoromethyl-1,2,4-triazolo[4,3-a]pyridine] | 7.62 |
| FC(F)(F)c1c(N2CCc3ccccc3C2)ccn2c(CC3CC3)nnc12 [compound 118] | 6.83 |
| Clc1c(N2CCN(C3COc4ccccc4C3)CC2)ccn2c(CC3CC3)nnc12 (stereo not shown) [compound 164] | 6.46 |
| Fc1ccc(C2CCN(c3ccn4c(CC5CC5)nnc4c3C(F)(F)F)CC2)c(F)c1 [compound 195] | 7.98 |
| COc1ccc(F)cc1C1CCN(c2ccn3c(CC(F)(F)F)nnc3c2Cl)CC1 [compound 61] | 7.98 |

Same assay, conditions: in presence of glutamate at EC20; average pEC50 if more experiments; ‡ means tested once; read-out: GTPγS - hR2 PAM pEC50 (converted)

| SMILES | EC50 |
| --- | --- |
| CCOCc1nnc2c(Cl)c(N3CCC(c4ccccc4)CC3)ccn12 [compound 5, 8-Chloro-3-(ethoxymethyl)-7-(4-phenyl-1-piperidinyl)-1,2,4-triazolo[4,3-a]pyridine] | 132 nM |
| CC1(C)OC2(CCN(c3ccn4c(CC(F)(F)F)nnc4c3Cl)CC2)c2ccccc21 [compound 139] | 4.37 nM |
| FC(F)(F)c1c(N2CCC3(CC2)COc2ncccc23)ccn2c(CC3CC3)nnc12 [compound 119, 1′-[3-cyclopropylmethyl-8-(trifluoromethyl)[1,2,4]triazolo[4,3-a]pyridin-7-yl]-spiro[furo[2,3-b]pyridine-3(2H),4′-piperidine]] | 1740 nM |
| CC(C)(O)c1ccccc1C1CCN(c2ccn3c(CC4CC4)nnc3c2Cl)CC1 [compound 7, 2-[1-[8-Chloro-3-(cyclopropylmethyl)-1,2,4-triazolo[4,3-a]pyridin-7-yl]-4-piperidinyl]-α,α-dimethyl-benzenemethanol] | 39.8 nM |
